Results taken from patent publication US20040121316A1 (priority 2002, published 2004).
“And” between values parts separate entries of the source, which are not always exact repeats. Equal entries are not always repeated. Where two headings read alike, the source gives them in different places.

Experiments:
[1] = target: T1, recombinant HIV-1 protease (Human immunodeficiency virus type 1 group M subtype B, UniProt P04585); assay: biochemical
T1 construct: Enzyme: recombinant HIV-1 protease expressed in E.Coli; purchased Bachem California, Inc. H-9040; host or cells: E. coli

mutant HIV-1 I84V/L90M = assay: Resistance Evaluation, I84V/L90M fold change; assay type: cell-based; set-up: scale not given here
[2] = test system: wild-type HIV-1 strain IIIB; assay: microbe, parasite or virus in culture; assay type: cell-based; set-up: scale not given here
84V90M HIV protease = 84V90M HIV protease (Human immunodeficiency virus type 1 group M subtype B, UniProt P04585, I572V/L578M); assay: biochemical; set-up: species or system HIV-1; conditions: read-out: 84V90M IC50/nM; Enzymatic assay, 84V90M
[3] = EC50 of mutant I84V/L90M relative to wild type, class symbols
[4] = Human immunodeficiency virus 1, IIIB

Row | Structure (SMILES) | Ki ([1]; Ki, class symbols, Table 10) | I84V/L90M fold change (mutant HIV-1 I84V/L90M; [3]) | EC50 [2, 4] [nM] | other results
1 | CCOC(=O)C(C)OP(=O)(Cc1ccc2c(c1)CCN(CC(NC(=O)OC1COC3OCCC13)C(O)CN(CC(C)C)S(=O)(=O)c1ccc(OC)cc1)C2)Oc1ccccc1 (stereo not shown) | 100 to 1000 pM | + (>3 to ≦10) |  | 
2 | CCOC(=O)C(C)OP(=O)(COc1ccc2c(c1)CCN(CC(NC(=O)OC1COC3OCCC13)C(O)CN(CC(C)C)S(=O)(=O)c1ccc(OC)cc1)C2)Oc1ccccc1 (stereo not shown) | 100 to 1000 pM | + (>3 to ≦10) |  | 
3 | COc1ccc(S(=O)(=O)N(CC(C)C)CC(O)C(CC2=CCN(CP(=O)(O)OC(C)C(=O)O)CC2)NC(=O)OC2COC3OCCC23)cc1 (stereo not shown) |  |  |  | EC50 (nM) [2]: + + +; Ki (pM) [1]: + + +; I84V/L90M fold change (mutant HIV-1 I84V/L90M; mutant I84V/L90M vs wild type): − (≦3)
4 | CCOC(=O)C(C)OP(=O)(CCN1CC=C(CC(NC(=O)OC2COC3OCCC23)C(O)CN(CC(C)C)S(=O)(=O)c2ccc(OC)cc2)CC1)Oc1ccccc1 (stereo not shown) |  |  |  | EC50 (nM) [2]: + + +; Ki ([1]; read-out: Ki): > 1000 pM; I84V/L90M fold change (mutant HIV-1 I84V/L90M; mutant I84V/L90M vs wild type): − (≦3)
5 | COc1ccc(S(=O)(=O)N(CC(C)C)CC(O)C(CN(C)Cc2ccc(P(=O)(O)OC(C)C(=O)O)cc2)NC(=O)OC2COC3OCCC23)cc1 (stereo not shown) |  |  |  | EC50 ([2]; read-out: EC50): 500 to 5000 nM; Ki (pM) [1]: + +; I84V/L90M fold change (mutant HIV-1 I84V/L90M; mutant I84V/L90M vs wild type): + + +
6 | CCOC(=O)C(C)OP(=O)(Cc1ccc2c(c1)CCN(C[C@H](NC(=O)O[C@H]1CO[C@H]3OCC[C@H]31)[C@H](O)CN(CC(C)C)S(=O)(=O)c1ccc(OC)cc1)C2)Oc1ccccc1 (stereo partly shown) |  |  |  | EC50 (nM) [2]: + +; Ki (pM) [1]: + +; I84V/L90M fold change (mutant HIV-1 I84V/L90M; mutant I84V/L90M vs wild type): + +
7 | COc1ccc(S(=O)(=O)N(CC(C)C)CC(O)C(Cc2ccc(NCP(=O)(O)O)cc2)NC(=O)OC2COC3OCCC23)cc1 (stereo not shown) |  |  |  | EC50 (nM) [2]: + +; Ki ([1]; read-out: Ki): 100 to 1000 pM; I84V/L90M fold change (mutant HIV-1 I84V/L90M; mutant I84V/L90M vs wild type): + (>3 to ≦10)
8 | CC(C)CN(CC(O)C(Cc1ccccc1)NC(=O)OC1COC2OCCC12)S(=O)(=O)c1ccc(OCP(=O)(O)Oc2ccccc2)cc1 (stereo not shown) |  |  | > 5000 | Ki (pM) [1]: + +
9 | COC(=O)N[C@H](C(=O)N[C@@H](Cc1ccccc1)[C@@H](O)CN(Cc1ccc(-c2ccccn2)cc1)NC(=O)[C@@H](NC(=O)OC)C(C)(C)C)C(C)(C)C [Atazanavir, reference compound] |  | +++ (>30) | < 50 | Ki ([1]; Ki): 10 to 100 pM
10 | COC(=O)C(C)NP(=O)(COc1ccc(CC(NC(=O)OC2COC3OCCC23)C(O)CN(CC(C)C)S(=O)(=O)c2ccc(OC)cc2)cc1)Oc1ccccc1 (stereo not shown) [Example 30a] | 10 to 100 pM | − (≦3) | < 50 | 
11 | CCOC(=O)C(C)NP(=O)(COc1ccc(CC(NC(=O)OC2COC3OCCC23)C(O)CN(CC(C)C)S(=O)(=O)c2ccc(OC)cc2)cc1)Oc1ccccc1 (stereo not shown) [Example 30b] | < 10 pM |  | < 50 | 
12 | COc1ccc(S(=O)(=O)N(CC(C)C)CC(O)C(Cc2ccc(OCP(=O)(NC(C)C(=O)OC(C)C)Oc3ccccc3)cc2)NC(=O)OC2COC3OCCC23)cc1 (stereo not shown) [Example 30c] | 10 to 100 pM and < 10 pM | − (≦3) |  | 
13 | CCCCOC(=O)C(C)NP(=O)(COc1ccc(CC(NC(=O)OC2COC3OCCC23)C(O)CN(CC(C)C)S(=O)(=O)c2ccc(OC)cc2)cc1)Oc1ccccc1 (stereo not shown) [Example 30d] | 10 to 100 pM | − (≦3) | < 50 | 
14 | COc1ccc(S(=O)(=O)N(CC(C)C)CC(O)C(Cc2ccc(OCP(=O)(Oc3ccccc3)OC(C)C(=O)OC(C)C)cc2)NC(=O)OC2COC3OCCC23)cc1 (stereo not shown) [Example 31a] | 10 to 100 pM and < 10 pM | − (≦3) | < 50 | 
15 | CCCCOC(=O)C(C)OP(=O)(COc1ccc(CC(NC(=O)OC2COC3OCCC23)C(O)CN(CC(C)C)S(=O)(=O)c2ccc(OC)cc2)cc1)Oc1ccccc1 (stereo not shown) [Example 31c] | 10 to 100 pM | − (≦3) | 50 to 500 | 
16 | CCOC(=O)C(C)OP(=O)(COc1ccc(CC(NC(=O)OC2COC3OCCC23)C(O)CN(CC(C)C)S(=O)(=O)c2ccc(OC)cc2)cc1)Oc1ccccc1 (stereo not shown) [Example 31e] | < 10 pM |  | < 50 | 
17 | CC(C)CN(C[C@@H](O)[C@H](Cc1ccc(OCP(=O)(Oc2ccccc2)Oc2ccccc2)cc1)NC(=O)OC1CCOC1)S(=O)(=O)c1ccc(N)cc1 (stereo partly shown) [NH2, phenol] |  |  |  | EC50 (nM) [2]: + +; Ki ([1]; read-out: Ki): 100 to 1000 pM; I84V/L90M fold change (mutant HIV-1 I84V/L90M; mutant I84V/L90M vs wild type): − (≦3)

Row | Structure (SMILES) | Ki ([1]; Ki, class symbols, Table 10) | I84V/L90M fold change (mutant HIV-1 I84V/L90M; [3]) | EC50 [2, 4] [nM] | other results
18 | CCOP(=O)(COc1ccc(CC(NC(=O)OC2CCOC2)C(O)CN(CC(C)C)S(=O)(=O)c2ccc(OC)cc2)cc1)OCC (stereo not shown) [OMe, OEt] |  |  |  | EC50 (nM) [2]: + + +; Ki (pM) [1]: + + and + + +; I84V/L90M fold change (mutant HIV-1 I84V/L90M; mutant I84V/L90M vs wild type): + + and + + +
19 | COc1ccc(S(=O)(=O)N(CC(C)C)C[C@@H](O)[C@H](Cc2ccc(OCP(=O)(Oc3ccccc3)Oc3ccccc3)cc2)NC(=O)OC2CCOC2)cc1 (stereo partly shown) [OMe, phenol] |  |  |  | EC50 (nM) [2]: + + +; Ki (pM) [1]: + + +; I84V/L90M fold change (mutant HIV-1 I84V/L90M; mutant I84V/L90M vs wild type): + (>3 to ≦10)
20 | CC(C)CN(C[C@@H](O)[C@H](Cc1ccccc1)NC(=O)O[C@H]1CO[C@H]2OCC[C@H]21)S(=O)(=O)c1ccc(OCP(=O)(Oc2ccccc2)O[C@@H](C)C(=O)OC(C)C)cc1 (stereo partly shown) [OPh, Lac-iPr] |  |  |  | EC50 ([2]; read-out: EC50): 500 to 5000 nM; Ki ([1]; read-out: Ki): 100 to 1000 pM
21 | CCOP(=O)(COc1ccc(CC(NC(=O)OC2COC3OCCC23)C(O)CN(CC(C)C)S(=O)(=O)c2ccc(OC)cc2)cc1)Oc1ccccc1 (stereo not shown) [drawing 608 R1=OEt R2=OPh] | < 10 pM |  | < 50 | 
22 | COc1ccc(S(=O)(=O)N(CC(C)C)CC(O)C(Cc2ccc(OCP(=O)(O)Oc3ccccc3)cc2)NC(=O)OC2COC3OCCC23)cc1 (stereo not shown) [drawing 608 R1=OH R2=OPh] | < 10 pM |  | > 5000 | 
23 | COc1ccc(S(=O)(=O)N(CC(C)C)CC(O)C(Cc2ccc(OCP(=O)(OC)Oc3ccccc3)cc2)NC(=O)OC2COC3OCCC23)cc1 (stereo not shown) [drawing 608 R1=OMe R2=OPh] | 10 to 100 pM |  | < 50 | 
24 | COc1ccc(S(=O)(=O)N(CC(C)C)CC(O)C(Cc2ccc(OCP(=O)(NC(C)C(=O)OC(C)C)Oc3ccccc3)cc2)NC(=O)OC2COC3OCCC23)cc1 (stereo not shown) [drawing 614 R1=OPh R2=Ala-iPr] | < 10 pM and 10 to 100 pM |  | < 50 | 
25 | CCCCOC(=O)CNP(=O)(COc1ccc(CC(NC(=O)OC2COC3OCCC23)C(O)CN(CC(C)C)S(=O)(=O)c2ccc(OC)cc2)cc1)Oc1ccccc1 (stereo not shown) [drawing 614 R1=OPh R2=Gly-Bu] | 10 to 100 pM | − (≦3) | 50 to 500 | 
26 | CCOC(=O)COP(=O)(COc1ccc(CC(NC(=O)OC2COC3OCCC23)C(O)CN(CC(C)C)S(=O)(=O)c2ccc(OC)cc2)cc1)Oc1ccccc1 (stereo not shown) [drawing 615 R1=OPh R2=Glc-Et] | < 10 pM | − (≦3) | 50 to 500 | 
27 | CCOC(=O)C(C)OP(=O)(COc1ccc(CC(NC(=O)OC2COC3OCCC23)C(O)CN(CC(C)C)S(=O)(=O)c2ccc(OC)cc2)cc1)Oc1cccc(CN)c1 [drawing 617 R1=OPb-m-CH2NH2 R2=(S)Lac-Et] | 10 to 100 pM |  | 50 to 500 | 
28 | COc1ccc(S(=O)(=O)N(CC(C)C)CC(O)C(Cc2ccc(NCP(=O)(NC(C)C(=O)OC(C)C)Oc3ccccc3)cc2)NC(=O)OC2COC3OCCC23)cc1 (stereo not shown) [drawing 661] |  |  |  | Ki ([1]; class symbols, Table 10): + +
29 | COc1ccc(S(=O)(=O)N(CC(C)C)CC(O)C(Cc2ccc(NCP(=O)(NC(C)C(=O)OC(C)C)Oc3ccccc3)cc2)NC(=O)OC2COC3OCCC23)cc1 (stereo not shown) [drawing 662] |  |  |  | Ki ([1]; class symbols, Table 10): + + +
30 | COc1ccc(S(=O)(=O)N(CC(C)C)CC(O)C(CC2=CCN(CCP(=O)(OCc3ccccc3)OCc3ccccc3)CC2)NC(=O)OC2COC3OCCC23)cc1 (stereo not shown) [drawing 673] |  |  |  | EC50 (nM) [2]: + +; Ki ([1]; read-out: Ki): > 1000 pM; I84V/L90M fold change (mutant HIV-1 I84V/L90M; mutant I84V/L90M vs wild type): − (≦3)
31 | CC(C)CN(CC(O)C(Cc1ccc(OCP(=O)(NC(C)C(=O)OC(C)C)Oc2ccccc2)cc1)NC(=O)OC1CCOC1)S(=O)(=O)c1ccc(N)cc1 (stereo not shown) [drawing 697 R1=OPh R2=Ala-iPr] | 100 to 1000 pM | + (>3 to ≦10) |  | EC50 ([2]; class symbols, Table 10): + +; Ki ([1]; class symbols, Table 10): + +
32 | CCCCOC(=O)C(C)OP(=O)(COc1ccc(CC(NC(=O)OC2COC3OCCC23)C(O)CN(CC(C)C)S(=O)(=O)c2cccc(N)c2)cc1)Oc1ccccc1 (stereo not shown) [drawing 719] |  |  |  | Ki ([1]; Ki (pM)): 100 to 1000 pM; I84V/L90M fold change (mutant HIV-1 I84V/L90M; mutant I84V/L90M vs wild type): − (≦3)
33 | CCCCOC(=O)C(C)OP(=O)(COc1ccc(CC(NC(=O)OC2COC3OCCC23)C(O)CN(CC(C)C)S(=O)(=O)c2cccc(N)c2)cc1)Oc1ccccc1 (stereo not shown) [drawing 720] |  |  |  | Ki (pM) [1]: + +
34 | CCOP(=O)(CCCNC(=O)c1cccc(CN2C(=O)N(Cc3ccc4[nH]nc(N)c4c3)C(Cc3ccccc3)C(O)C(O)C2Cc2ccccc2)c1)OCC (stereo not shown) [drawing 820] |  |  |  | IC50 (84V90M HIV protease): 10 nM
